From patent US12280036B2, “Using fatty acid synthase inhibitors to treat fibrosis” (Mayo Foundation for Medical Education and Research, priority 2016, dated 2025) come the findings set out here.

For series [1], the system named is AKR-2B cells. In words: Soft agar colony formation assay. The format is cell-based, murine. Conditions: 0, 0.3, 1, 3, or 10 μM C75, TGFβ 10 ng/ml, 7 days growth, dose dependent. The protocol:
Murine fibroblasts (AKR-2B) were treated for 24 hours with vehicle (0.025% DMSO) or C75 (FASN inhibitor, 3 μM) in the presence or absence of TGFβ (10 ng/ml), and 0, 0.3, 1, 3, or 10 μM C75. Following 7 days growth, cells were subjected to soft agar colony formation assays. TGFβ increased colony formation, but inhibition of FASN activity with C75 suppressed TGFβ induced colony formation in a dose dependent manner (FIG. 4B; *p-value<0.05, **p-value<0.01). Data reflect the mean+/−standard deviation of triplicate wells from 3 experiments.
Murine fibroblasts (AKR-2B) were transfected with either a nontargeting control siRNA (60 nmol/L) or with FASN-targeting siRNA (60 nmol/L). After 72 hours of cultivation, the transient transfectants were stimulated in the absence or presence of 10 ng/ml TGFβ for 24 hours. Following 7 days growth, cells were subjected to soft agar colony formation assays. TGFβ increased colony formation, but inhibition of FASN activity with FASN-targeting siRNA suppressed TGFβ induced colony formation (FIG. 5B; **p-value<0.01). Data reflect the mean standard deviation of triplicate wells from 3 experiments.

Series [2] has as its system profibrotic TGFβ signaling. In words: Western blot of TGFβ induced profibrotic proteins in AKR-2B fibroblasts. The format is cell-based, murine. Particulars: C75 3 μM, TGFβ 10 ng/ml, 24 hours. The procedure:
(§1) Murine fibroblasts (AKR-2B) and human lung fibroblasts (MRCS) were treated for 24 hours with vehicle (0.025% DMSO) or C75 (FASN inhibitor, 3 μM) in the presence or absence of TGFβ (10 ng/ml). Proteins were obtained from treated and control cells. Protein samples were Western blotted for FASN, Col I, Col IV, FN, CTGF, and pSmad3, and Western blotted for GAPDH as a loading control. TGFβ increased expression of FASN, Col I, Col IV, FN, CTGF, and pSmad3, but inhibition of FASN activity with C75 suppressed TGFβ induced Col I, Col IV, and FN expression (FIG. 4A).
(§2) Murine fibroblasts (AKR-2B) and human lung fibroblasts (MRCS) were transfected with either a nontargeting control siRNA (60 nmol/L) or with FASN-targeting siRNA (60 nmol/L). After 72 hours of cultivation, the transient transfectants were stimulated in the absence or presence of 10 ng/ml TGFβ for 24 hours. Proteins were obtained from treated and control cells. Protein samples were Western blotted for FASN, Col I, Col IV, FN, CTGF, and pSmad3, and Western blotted for GAPDH as a loading control. TGFβ increased expression of FASN, Col I, Col IV, FN, CTGF, and pSmad3, but inhibition of FASN activity with FASN-targeting siRNA suppressed TGFβ induced Col I, Col IV, and FN expression (FIG. 5A).

Series [3] has as its system profibrotic TGFβ signaling. In words: Western blot of TGFβ induced profibrotic proteins in MRCS lung fibroblasts. The series is classed as cell-based, human. Conditions: C75 3 μM, TGFβ 10 ng/ml, 24 hours. The protocol: as §1, §2
For orientation: A western blot detects proteins with antibodies after separation by electrophoresis.

Series [4] relates to AKR-2B cells. The series can be described thus: Scratch assay (cell migration), AKR-2B. The format is cell-based, murine. Particulars: C75 3 μM, TGFβ 10 ng/ml, 24 hours. The protocol: (§3) Murine fibroblasts (AKR-2B) and human lung fibroblasts (MRCS) were treated for 24 hours with vehicle (0.025% DMSO), TGFβ (10 ng/ml), or both TGFβ (10 ng/ml) and C75 (3 μM). Following 24 hours of treatment, culture plates were manually scratched. TGFβ increased cell migration, but inhibition of FASN activity with C75 suppressed TGFβ induced cell migration (FIG. 4C). Data are representative of 3 separate experiments.
Murine (AKR-2B) lung fibroblasts were transfected with either a nontargeting control siRNA (60 nmol/L) or with FASN-targeting siRNA (60 nmol/L). After 72 hours of cultivation, the transient transfectants were stimulated in the absence or presence of 10 ng/ml TGFβ for 24 hours. Following 24 hours of treatment, culture plates were manually scratched. TGFβ increased cell migration, but inhibition of FASN activity with FASN-targeting siRNA suppressed TGFβ induced cell migration (FIG. 5C). Data are representative of 3 separate experiments.

The nature of series [5]: Blood inflammatory cells in bleomycin or saline challenged mice. Conditions: 3.0 mg/kg C75 every 4th day from day 14; blood at days 0, 14, and 28. The series is classed as in vivo, C57BL/6 mice. The protocol: (§4) C57BL/6 mice were intratracheally treated with an equal volume of saline (control) or bleomycin (BLM; 0.075 U). On day 14 all animals began treatment every 4th day with either vehicle (Methocel/saline) or 3.0 mg/kg of C75. Blood samples were obtained at days 0, 14, and 28 from the facial vein of unanesthetized animals and assessed for effect on inflammatory cells. Quantification of lymphocytes, monocytes, and neutrophils were measured using a VetScan HM5 Analyzer (FIG. 7B). Data are presented as mean+/−SEM of n=5.

Series [6] can be described thus: Serum liver enzymes in bleomycin or saline challenged mice. The series is classed as in vivo, C57BL/6 mice. Particulars: 3.0 mg/kg C75 every 4th day from day 14; blood at days 0, 14, and 28. The procedure:
as §4, with “liver enzymes. Serum levels (U/L, units per liter; g/dL, grams per deciliter)” for “inflammatory cells. Quantification”, “alkaline phosphatase (ALP), alanine aminotransferase (ALT),” for “lymphocytes, monocytes,”, “albumin” for “neutrophils”, “determined” for “measured”, “Piccolo Xpress Chemistry” for “VetScan HM5”, “7A).” for “7B).”

Series [7] deals with MRCS cells. In words: Scratch assay (cell migration), MRCS. The series is classed as cell-based, human. Conditions: C75 3 μM, TGFβ 10 ng/ml, 24 hours. The protocol:
as §3

In series [8] the test system is MRCS cells. In words: In vitro cell proliferation (MTT assay and cell counts), MRCS. The series is classed as cell-based, human. Conditions: C75 3 μM, FBS free or 10% FBS. The procedure: (§5) Murine fibroblasts (AKR-2B) and human lung fibroblasts (MRCS) were seeded at 2.5×10^3 or 1×10^4 cells/96 well plate, respectively. AKR-2B cells were seeded in medium containing 10% DMEM/FBS, and MRCS cells were seeded in medium containing 10% EMEM/FBS. 24 hours after seeding, the medium was removed and replaced with DMEM or EMEM containing vehicle (0.1% DMSO), or C75 (3 μM) either in 10%, 0.1%, or 0% FBS for 24 hours prior to MTT assay (FIG. 6A). Absorbance was measured at 570 nm. Results represent mean±SEM from three independent experiments
(§6) Murine fibroblasts (AKR-2B) and human lung fibroblasts (MRCS) were seeded at 1.0×10^4 cells/well in 24 well plates for 24 hours. AKR-2B cells were seeded in medium containing 10% DMEM/FBS, and MRCS cells were seeded in medium containing 10% EMEM/FBS. 24 hours after seeding, the medium was removed and replaced with DMEM or EMEM containing vehicle (0.1% DMSO), or C75 (3 μM) either in 10%, 0.1%, or 0% FBS for 24 hours prior to determining cell counts following an additional 24 hour and 48 hour incubation (FIG. 6B). Results represent mean±SEM from three independent experiments.
(Tetrazolium assays rely on reduction of a dye to a coloured formazan, in cell work by metabolically active cells.)

For series [9], the system named is AKR-2B cells. In words: In vitro cell proliferation (MTT assay and cell counts), AKR-2B. The series is classed as cell-based, murine. Conditions: C75 3 μM, 0.1% FBS or 10% FBS. The procedure: as §5, §6
Series [10] in a line: Oxygen saturation (SpO2) in bleomycin challenged mice. The format is in vivo. Conditions: 0.03, 0.3, or 3 mg/kg C75 every 4th day from day 14, room air, dose dependent. The protocol:
Mice were challenged with bleomycin or saline for 25 days, and every 4th day, beginning 14 days following initial bleomycin insult, were treated with vehicle (methocel/0.1% DMSO) or with 0.03 mg/kg, 0.3 mg/kg, or 3 mg/kg C75. Oxygen saturation (SpO2) levels (determined on room air) were measured.
Bleomycin-induced fibrotic conditions caused reduced, time-dependent fluctuations in oxygen saturation, but inhibition of FASN activity with C75 stabilized lung gas exchange in a dose dependent manner (FIG. 7; *p-value<0.05, **p-value<0.01). Error bars reflect standard deviation from n=5 (control, BLM, 0.03 mg/kg C75), 7 (0.3 mg/kg C75), or 8 (3 mg/kg C75) animals.

For the next series, the system named is FN, CTGF, and Col I. In words: qPCR of profibrotic genes in lung tissue of bleomycin challenged mice. The format is in vivo. Particulars: 0.03, 0.3, or 3 mg/kg C75 intraperitoneal every 4th day from day 14, lung harvested day 28, dose dependent. The procedure: Mice were challenged with bleomycin or vehicle (methocel/0.1% DMSO), and every 4th day, beginning 14 days following initial bleomycin insult, were treated by intraperitoneal injection with vehicle, 0.03 mg/kg, 0.3 mg/kg, or 3 mg/kg C75. Murine lung tissue was harvested on day 28 and RNA was obtained. qPCR was performed using primers specific for FN, CTGF, and Col I.
Data reflect mean standard deviation from lungs of n=5 (control, bleomycin, 0.03 mg/kg C75), 7 (0.3 mg/kg C75), or 8 (3 mg/kg C75) animals.
(In qPCR the cycle at which signal appears reflects the starting amount.)

Series [11] is described as follows: Adenovirus-TGFβ model of pulmonary fibrosis. The series is classed as in vivo. Particulars: adenovirus-TGFβ1 mice; 3.0 mg/kg C75 every 4th day from day 21; blood oxygen days 21 and 35, hydroxyproline and qPCR day 39. The protocol: Mice were infected with 1×10^8 pfu adenovirus particles expressing control (GFP) or active TGFβ1 by tracheal instillation. On day 21 all animals began treatment every 4th day with either vehicle (Methocel/saline) or 3.0 mg/kg of C75. Peripheral blood oxygen determined on days 21 and 35 (FIG. 10A). Data reflect mean+/−SEM of n=8 and n=15 for adenovirus-GFP and adenovirus-TGFβ, respectively. *P<0.05. Mice were infected with 1×10^8 pfu adenovirus particles expressing control (GFP) or active TGFβ1 by tracheal instillation. On day 21 all animals began treatment every 4th day with either vehicle (Methocel/saline) or 3.0 mg/kg of C75. Mice were sacrificed on day 39 and processed for lung hydroxyproline content (FIG. 10B). Data reflect mean+/−SEM of n=8 and n=15 for adenovirus-GFP and adenovirus-TGFβ, respectively. **P<0.01. Mice were infected with 1×10^8 pfu adenovirus particles expressing control (GFP) or active TGFβ1 by tracheal instillation. On day 21 all animals began treatment every 4th day with either vehicle (Methocel/saline) or 3.0 mg/kg of C75. Mice were sacrificed on day 39 and processed for qPCR expression of connective tissue growth factor (CTGF), alpha smooth muscle actin (α-SMA), and collagen Iα1 (Col Iα1). Data reflect mean+/−SEM of n=8 and n=15 for adenovirus-GFP and adenovirus-TGFβ, respectively. *P<0.05, **P<0.01.

The subject of series [12] is FASN. The series can be described thus: Western blot of TGFβ induced FASN expression in AKR-2B fibroblasts. The format is cell-based, murine. Conditions: TGFβ 10 ng/ml, Rapamycin 100 nM, Torin 200 nM, 24 hours. The procedure: (§7) Murine fibroblasts (AKR-2B) and human lung fibroblasts (MRCS) were transfected with either a nontargeting control siRNA (60 nmol/L) or with Smad2/3-targeting siRNA (60 nmol/L). After 72 hours of cultivation, the transient transfectants were stimulated in the absence or presence of 10 ng/ml TGFβ for 24 hours. Proteins were obtained from treated and control cells. Protein samples were Western blotted for FASN, pSmad2, pSmad3, and connective tissue growth factor (CTGF), and Western blotted for GAPDH as a loading control.
(§8) Murine fibroblasts (AKR-2B) and human lung fibroblasts (MRCS) were stimulated in the absence or presence of TGFβ (10 ng/ml) plus a PI3K inhibitor (LY294002; 10 μM), a MEK inhibitor (U0126; 10 μM), an AKT inhibitor (MK2206; 0.3 μM), a mTORC1 inhibitor (Rapamycin; 100 nM), or a mTORC1,2 inhibitor (Torin; 200 nM). Expression of pErk and pS6K/pS6K was determined at 1 and 6 hours post-stimulation while FASN, pSmad3, and GAPDH assessed at 24 hours. TGFβ induced FASN expression was abrogated in the presence of rapamycin or torin (FIGS. 3C and 3D).

In series [13] the test system is FASN. The series can be described thus: Western blot of TGFβ induced FASN expression in MRCS lung fibroblasts. The format is cell-based, human. Conditions: TGFβ 10 ng/ml, Rapamycin 100 nM, Torin 200 nM, 24 hours. The protocol: as §7, §8

On to `C=C1C(=O)OC(CCCCCCCC)C1C(=O)O` (centres unmarked) [C75], for which the “TGFβ induced colony formation” value with AKR-2B cells [1] is “suppressed”. Also, the “TGFβ induced Col I, Col IV, and FN expression” value in series [2] and in series [3] was “suppressed” throughout. Further, the “TGFβ induced cell migration” value in the series on AKR-2B cells [4] and in the series on MRCS cells [7] was “suppressed” throughout. In addition, the “inflammatory cell recruitment (lymphocytes, monocytes, neutrophils)” value in [5] was “no effect”. The “murine liver enzymes (serum ALP, ALT, albumin)” value in series [6] is “no effect”. Moreover, the “in vitro cell proliferation (OD570, cell counts)” value in the series with MRCS cells [8] and with AKR-2B cells [9] was “does not inhibit” throughout. The “lung gas exchange (oxygen saturation, SpO2)” value in [10] is given as “stabilized”. Besides, the “FN, CTGF, and Col I expression (qPCR, lung tissue)” value with FN, CTGF, and Col I is “reduced”. The lung function entry in series [11] is recorded as “stabilizes lung function”.

As to Torin, the “TGFβ induced FASN expression” value in the series on FASN [12] and with FASN [13] was “abrogated” throughout.
